Experimental data reported in ChEMBL document CHEMBL1127296, “Interaction of calcium channel antagonists with calcium: structural studies on nicardipine and its Ca2+ complex” (J Med Chem, 1994).

Key:
[1] = Dissociation constant to estimate the calcium binding to the compound at the ratio of 2:1
[2] = Dissociation constant to estimate the calcium binding to the compound at the ratio of 1:1

- K2 [1]: 26 µM
- K1 [2]: 100 µM
Compound: COC(=O)C1=C(C)NC(C)=C(C(=O)OCCN(C)Cc2ccccc2)C1c1cccc([N+](=O)[O-])c1 (configuration not stated)
